US6071908A (priority 1995, dated 2000)
Where a name gives a salt, the structure may show the parent alone. Read-outs that look alike come from different tables or passages of the source.

Assays:
UV4 cells = experiment: cells; type: cell-based; details: Cricetulus griseus
SKOV3 cells = experiment: cells; type: cell-based; details: Homo sapiens
[1] = UV4, light or radiation study, 4 h, read-out: IC50, P (unirradiated prodrug)
[2] = UV4, 4 h, read-out: IC50, E (authentic effector)
[3] = SK-OV-3, light or radiation study, 4 h, read-out: IC50, P (unirradiated prodrug)
[4] = SK-OV-3, 4 h, read-out: IC50, E (authentic effector)

Row | Structure (SMILES) | IC50 (UV4 cells; [1]) | IC50 (UV4 cells; [2]) | IC50 (SKOV3 cells; [3]) | IC50 (SKOV3 cells; [4])
1 | C[N+](C)(Cc1ccc([N+](=O)[O-])cc1)c1ccc2c(c1)N(S(C)(=O)=O)CC2CCl (centres unmarked) [Compound 11, 3-(chloromethyl)-6-[N,N-dimethyl-N-(4-nitrobenzyl)-ammonio]-1-(methanesulfonyl)indoline chloride] | 1140 ± 122 µM | – | – | –
2 | CN(C)c1ccc2c(c1)N(S(C)(=O)=O)CC2CCl (centres unmarked) [Compound 12, reference compound] | – | 15 ± 6 µM | – | –
3 | C[N+](C)(CCNC(=O)c1cccc2cc3ccccc3nc12)Cc1ccc([N+](=O)[O-])cc1 [Compound 15, 2-[N-(acridin-4-yl)carbonyl]aminoethyl-(dimethyl)-4-nitrobenzylammonium bromide] | > 150 µM | – | > 150 µM | –
4 | C[N+](C)(CCNC(=O)c1cccc2cc3ccccc3nc12)Cc1ccc([N+](=O)[O-])s1 [Compound 16, 2-[N-(acridin-4-yl)carbonyl]aminoethyl-(dimethyl)-(5-nitro-2-thienyl)methylammonium chloride] | 40 ± 8 µM | – | 169 ± 58 µM | –
5 | Cc1cccc2c(N)c3cccc(C(=O)NCC[N+](C)(C)Cc4ccc([N+](=O)[O-])cc4)c3nc12 [Compound 17, 2-[N-(9-amino-5-methylacridin-4-yl)carbonyl]aminoethyl-(dimethyl)-4-nitrobenzylammonium bromide] | 0.78 µM | – | 4 ± 0.1 µM | –
6 | Cc1cccc2c(N)c3cccc(C(=O)NCC[N+](C)(C)Cc4ccccc4[N+](=O)[O-])c3nc12 [Compound 18, 2-[N-(9-amino-5-methylacridin-4-yl)carbonyl]aminoethyl-(dimethyl)-2-nitrobenzyl]ammonium chloride] | 3.1 µM | – | – | –
7 | Cc1cccc2c(N)c3cccc(C(=O)NCC[N+](C)(C)Cc4ccc([N+](=O)[O-])s4)c3nc12 [Compound 19, 2-[N-(9-amino-5-methylacridin-4-yl)carbonyl]aminoethyl-(dimethyl)-5-nitro-2-thienylmethylammonium chloride] | 0.16 ± 0.03 µM | – | – | –
8 | Cc1cccc2c(N)c3cccc(C(=O)NCC[N+](C)(C)Cc4nc(N5CCOCC5)sc4[N+](=O)[O-])c3nc12 [Compound 20, 2-[N-(9-amino-5-methylacridin-4-yl)carbonyl]aminoethyl-(dimethyl)-2-[4-morpholino-5-nitro-4-thiazolylmethyl]ammonium chloride] | 1 ± 0.3 µM | – | – | –
9 | Cc1cccc2c(N)c3cccc(C(=O)NCC[N+](C)(C)Cc4ccc([N+](=O)[O-])n4C)c3nc12 [Compound 21, 2-(N-[9-amino-5-methylacridin-5-yl]carbonyl)aminoethyl-(dimethyl)[1-methyl-5-nitro-2-pyrrolyl]methylammonium chloride] | 2 ± 0.4 µM | – | – | –
10 | Cc1cccc2c(N)c3cccc(C(=O)NCC[N+](C)(C)Cc4c([N+](=O)[O-])ncn4C)c3nc12 [Compound 22, 2-(N-[9-amino-5-methylacridin-4-yl]carbonyl)aminoethyl-(dimethyl)-(1-methyl-4-nitro-5-imidazolyl)methylammonium chloride] | 1.9 ± 0.4 µM | – | – | –
11 | CN(C)CCNc1ccc(NCC[N+](C)(C)Cc2ccc([N+](=O)[O-])cc2)c2c1C(=O)c1c(O)ccc(O)c1C2=O [Compound 27, 1-[(2-(4-nitrobenzyl)dimethylammonium)ethylamino]-4-[(2-dimethylamino)ethylamino]-5,8-dihydroxy-9,10-anthracenedione chloride] | 0.27 ± 0.04 µM | – | 9.7 µM | –
12 | CN(C)CCNC(=O)c1cccc2cc3ccccc3nc12 [Compound 37, N-[(dimethylamino)ethyl]acridine-4-carboxamide, reference compound] | – | 0.49 ± 0.11 µM | – | 3.4 ± 0.8 µM
13 | Cc1cccc2c(N)c3cccc(C(=O)NCCN(C)C)c3nc12 [Compound 38, (N,N-dimethylaminoethyl)-9-amino-5-methylacridine-4-carboxamide, reference compound] | – | 0.011 µM | – | 0.046 ± 0.002 µM
14 | CN(C)CCNc1ccc(NCCN(C)C)c2c1C(=O)c1c(O)ccc(O)c1C2=O [Compound 46, 1,4-bis[(2-dimethylamino)-ethylamino]-5,8-dihydroxy-9,10-anthracenedione, reference compound] | – | 0.0021 µM | – | 0.074 ± 0.0004 µM
15 | NCCNCCCNC(=O)c1cccc2cc3ccccc3nc12 [Compound 47, N-[3-[(2-Aminoethyl)amino]propyl]acridine-4-carboxamide trihydrochloride, reference compound] | – | 1.6 ± 0.4 µM | – | 1.6 ± 0.3 µM
